Patent US9545120B2, “Method of lowering glycemic index of foods” (BASF SE, priority 2002, dated 2017)
Read-outs that look alike come from different tables or passages of the source.

Tests used:
[1] = molecular target: T1, Alpha-glucosidase Type 1 from bakers yeast (Saccharomyces cerevisiae, UniProt P53341); experiment: Alpha-glucosidase assay; type: biochemical; conditions: for remaining activity at 15.6 µg/mL / remaining activity at 7.8 µg/mL / remaining activity at 31.3 µg/mL / remaining activity at 62.5 µg/mL / remaining activity at 125 µg/mL / remaining activity at 250 µg/mL / remaining activity at 500 µg/mL: read-out: alpha-glucosidase % control; for inhibition at 15.6 µg/mL / inhibition at 7.8 µg/mL / inhibition at 31.3 µg/mL / inhibition at 62.5 µg/mL / inhibition at 125 µg/mL / inhibition at 250 µg/mL / inhibition at 500 µg/mL: read-out: alpha-glucosidase % inhibition; for inhibition at 1600 µM: read-out: % inhibition of alpha-glucosidase at flavonoid concentration 1.6 mM (454 μg/mL)
T1 construct: purchased Sigma
Method: Alpha-glucosidase Type 1 from bakers yeast, substrate (p-nitrophenyl-alpha-D-glucopyranoside) and a control inhibitor, castanospermine were purchased from Sigma. For the assay, enzyme dissolved in 50 mM acetate buffer, pH 4.5 was incubated for 30 min, at 37° C. in the presence of substrate and in the presence vs. absence of inhibitors (flavonoids or castanospermine at various concentrations). The reaction was carried out in 50 mM acetate buffer, pH 4.5. Final concentration of alpha glucosidase was 0.2 U/ml; final concentration of the substrate was 2 mM. Flavonoids concentrations ranged from 7.8 to 500 μg/ml and castanospermine was used at final concentration 1 μg/ml. The reaction was stopped by addition of 0.2 M Na2CO3 and absorbance was measured at 405 nm. Background absorbance (without enzyme) was subtracted for every flavonoid concentration used. The inhibitory activity was expressed as 100 minus relative absorbance difference between tested samples and controls.

[2] = molecular target: T2, Alpha-amylase from porcine pancreas (Sus scrofa, UniProt P00690); experiment: Alpha-amylase assay; type: biochemical; conditions: for remaining activity at 11.7 µg/mL / remaining activity at 23.4 µg/mL / remaining activity at 46.9 µg/mL / remaining activity at 93.8 µg/mL / remaining activity at 187.5 µg/mL / remaining activity at 375 µg/mL / remaining activity at 750 µg/mL: read-out: alpha-amylase % control; for inhibition at 11.7 µg/mL / inhibition at 23.4 µg/mL / inhibition at 46.9 µg/mL / inhibition at 93.8 µg/mL / inhibition at 187.5 µg/mL / inhibition at 375 µg/mL / inhibition at 750 µg/mL: read-out: alpha-amylase % inhibition; for inhibition at 1600 µM: read-out: % inhibition of alpha-amylase at flavonoid concentration 1.6 mM (454 μg/mL)
T2 construct: purchased Sigma; host or cells: porcine pancreas
T2 sequence (P00690 16-511): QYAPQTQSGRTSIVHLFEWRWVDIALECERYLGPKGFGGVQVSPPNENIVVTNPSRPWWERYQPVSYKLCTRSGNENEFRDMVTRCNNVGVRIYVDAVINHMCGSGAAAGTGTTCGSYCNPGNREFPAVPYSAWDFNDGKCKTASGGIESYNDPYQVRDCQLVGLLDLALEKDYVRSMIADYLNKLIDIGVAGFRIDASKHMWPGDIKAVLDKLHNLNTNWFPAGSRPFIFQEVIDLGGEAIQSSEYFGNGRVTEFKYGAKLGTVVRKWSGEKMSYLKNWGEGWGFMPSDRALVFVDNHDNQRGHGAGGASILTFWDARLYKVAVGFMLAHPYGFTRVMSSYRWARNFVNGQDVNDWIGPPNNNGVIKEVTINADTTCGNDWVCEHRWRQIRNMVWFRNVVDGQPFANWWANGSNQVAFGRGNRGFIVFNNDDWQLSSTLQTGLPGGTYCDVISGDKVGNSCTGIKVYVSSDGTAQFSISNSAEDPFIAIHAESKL
Method: Alpha-amylase from porcine pancreas, alpha-glucosidase, glucoamylase and substrate (p-nitrophenyl-alpha-maltopentaoside) were purchased from Sigma. In the reaction, alpha-amylase (endo-type enzyme) hydrolysed the substrate into shorter chain glucosides and the auxiliary enzymes (exo-type enzymes) released the chromophore (p-nitrophenol) from the amylase-hydrolyzed malto-polysaccharides. For the assay, alpha-amylase (7.5 U/ml) was added to a substrate solution containing 1 mM p-nitrophenyl-alpha-maltopentaoside, 15 U/ml of alpha-glucosidase and 25 U/ml of glucoamylase in 50 mM HEPES buffer (pH 7.3) containing 3 mM CaCl2 and 40 mM NaCl. The reaction was carried out for 15 min at 37° C. in the presence vs. absence of flavonoids at concentrations ranged from 11.7 to 750 μg/ml. At the end of the incubation, 0.2 M borate, pH 9.8 was added to inactivate the enzymes and liberated p-nitrophenol was measured spectrophotometrically at 405 nm. The relative activity of alpha-amylase was calculated by subtracting reaction blanks containing the substrate, the two axillary enzymes and flavonoids at the same concentrations. The inhibitory activity was expressed as 100 minus relative absorbance difference between tested samples and controls.

T1 sequence (P53341 whole entry): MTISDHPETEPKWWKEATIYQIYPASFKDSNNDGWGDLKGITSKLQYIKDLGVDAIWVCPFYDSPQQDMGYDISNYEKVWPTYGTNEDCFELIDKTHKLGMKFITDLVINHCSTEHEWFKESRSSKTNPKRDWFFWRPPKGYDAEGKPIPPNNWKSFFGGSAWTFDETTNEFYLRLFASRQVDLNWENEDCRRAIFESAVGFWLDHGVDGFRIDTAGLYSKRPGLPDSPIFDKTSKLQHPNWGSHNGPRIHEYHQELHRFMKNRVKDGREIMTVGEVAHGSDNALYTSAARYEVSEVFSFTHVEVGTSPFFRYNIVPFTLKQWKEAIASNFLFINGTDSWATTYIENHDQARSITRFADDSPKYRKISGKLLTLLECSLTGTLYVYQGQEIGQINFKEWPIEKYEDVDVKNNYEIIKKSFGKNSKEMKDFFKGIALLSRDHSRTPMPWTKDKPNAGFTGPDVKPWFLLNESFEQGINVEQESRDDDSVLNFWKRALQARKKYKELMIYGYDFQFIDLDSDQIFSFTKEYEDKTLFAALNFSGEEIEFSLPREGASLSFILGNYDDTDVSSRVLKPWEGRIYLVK

Structure (SMILES) | remaining activity at 15.6 µg/mL ([1]; flavonoid conc. 15.6 μg/mL) [%] | inhibition at 15.6 µg/mL ([1]; flavonoid conc. 15.6 μg/mL) [%] | inhibition at 1600 µM [1] [%] | remaining activity at 7.8 µg/mL [1] [%] | remaining activity at 31.3 µg/mL [1] [%] | remaining activity at 62.5 µg/mL [1] [%] | remaining activity at 125 µg/mL [1] [%] | remaining activity at 250 µg/mL [1] [%] | remaining activity at 500 µg/mL [1] [%] | inhibition at 7.8 µg/mL [1] [%] | inhibition at 31.3 µg/mL [1] [%] | inhibition at 62.5 µg/mL [1] [%] | inhibition at 125 µg/mL [1] [%] | inhibition at 250 µg/mL [1] [%] | inhibition at 500 µg/mL [1] [%] | remaining activity at 11.7 µg/mL ([2]; flavonoid conc. 11.7 μg/ml) [%] | inhibition at 11.7 µg/mL ([2]; flavonoid conc. 11.7 μg/ml) [%] | remaining activity at 23.4 µg/mL ([2]; flavonoid conc. 23.4 μg/ml) [%] | inhibition at 23.4 µg/mL ([2]; flavonoid conc. 23.4 μg/ml) [%] | inhibition at 1600 µM [2] [%] | also measured
O=c1cc(-c2ccc(O)c(O)c2)oc2cc(O)cc(O)c12 [Luteolin, luteolin] | 60.2 | 39.8 | 96 | 81.4 | 65.8 | 45.7 | 17.9 | 19.1 | 0 | 18.6 | 34.2 | 54.3 | 82.1 | 80.9 | 100 | 0 | 100 | 0 | 100 | 100 | IC50 ([1]; read-out: IC50 concentration, alpha-glucosidase (converted)): 180 µM; remaining activity at 46.9 µg/mL ([2]; flavonoid conc. 46.9 μg/ml): 0%; inhibition at 46.9 µg/mL ([2]; flavonoid conc. 46.9 μg/ml): 100%; remaining activity at 93.8 µg/mL ([2]; flavonoid conc. 93.8 μg/ml): 0%; inhibition at 93.8 µg/mL ([2]; flavonoid conc. 93.8 μg/ml): 100%; remaining activity at 187.5 µg/mL ([2]; flavonoid conc. 187.5 μg/ml): 0%; inhibition at 187.5 µg/mL ([2]; flavonoid conc. 187.5 μg/ml): 100%; remaining activity at 375 µg/mL ([2]; flavonoid conc. 375.0 μg/ml): 0%; inhibition at 375 µg/mL ([2]; flavonoid conc. 375.0 μg/ml): 100%; remaining activity at 750 µg/mL ([2]; flavonoid conc. 750.0 μg/ml): 0%; inhibition at 750 µg/mL ([2]; flavonoid conc. 750.0 μg/ml): 100%; inhibition of alpha-amylase at the lowest concentration tested ([2]; lowest concentration tested (11.7 μg/ml)): inhibiting the enzyme completely; IC50 ([2]; read-out: IC50 concentration, alpha-amylase (converted)): 20.3 µM
O=c1cc(-c2ccc(O)cc2)oc2cc(O)cc(O)c12 [Apigenin, apigenin] | 74.3 | 25.7 | 100 | 73.5 | 68.4 | 50.4 | 29.5 | 0 | 0 | 26.5 | 31.6 | 49.6 | 70.5 | 100 | 100 | 81 | 19 | 0 | 100 | 100 | IC50 [1]: 220 µM; remaining activity at 46.9 µg/mL ([2]; flavonoid conc. 46.9 μg/ml): 0%; inhibition at 46.9 µg/mL ([2]; flavonoid conc. 46.9 μg/ml): 100%; remaining activity at 93.8 µg/mL ([2]; flavonoid conc. 93.8 μg/ml): 0%; inhibition at 93.8 µg/mL ([2]; flavonoid conc. 93.8 μg/ml): 100%; remaining activity at 187.5 µg/mL ([2]; flavonoid conc. 187.5 μg/ml): 0%; inhibition at 187.5 µg/mL ([2]; flavonoid conc. 187.5 μg/ml): 100%; remaining activity at 375 µg/mL ([2]; flavonoid conc. 375.0 μg/ml): 0%; inhibition at 375 µg/mL ([2]; flavonoid conc. 375.0 μg/ml): 100%; remaining activity at 750 µg/mL ([2]; flavonoid conc. 750.0 μg/ml): 0%; inhibition at 750 µg/mL ([2]; flavonoid conc. 750.0 μg/ml): 100%
O[C@H]1[C@H](O)[C@@H](O)CN2CC[C@H](O)[C@H]12 [castanospermine, reference compound] |  |  |  |  |  |  |  |  |  |  |  |  |  |  |  |  |  |  |  |  | activity of alpha-glucosidase reduced by ([1]; 1 μg/ml, control inhibitor): 32%
COc1cc(-c2cc(=O)c3c(O)cc(O)cc3o2)cc(OC)c1O [Tricin, tricin] |  |  | 100 | 97.7 | 15.6 | 6.4 | 0 | 0 | 0 | 0.3 | 84.4 | 93.6 | 100 | 100 | 100 |  |  |  |  | 100 | IC50 [1]: 36.3 µM; remaining activity at 15.6 µg/mL [1]: 26.4%; inhibition at 15.6 µg/mL [1]: 73.6%; IC50 [2]: 30 µM; remaining activity at 11.7 µg/mL [2]: 40.9%; remaining activity at 23.4 µg/mL [2]: 18.2%; remaining activity at 46.9 µg/mL [2]: 0%; remaining activity at 93.8 µg/mL [2]: 0%; remaining activity at 187.5 µg/mL [2]: 0%; remaining activity at 375 µg/mL [2]: 0%; remaining activity at 750 µg/mL [2]: 0%; inhibition at 11.7 µg/mL [2]: 59.1%; inhibition at 23.4 µg/mL [2]: 81.8%; inhibition at 46.9 µg/mL [2]: 100%; inhibition at 93.8 µg/mL [2]: 100%; inhibition at 187.5 µg/mL [2]: 100%; inhibition at 375 µg/mL [2]: 100%; inhibition at 750 µg/mL [2]: 100%
